# Experimental data as given in US8614206B2 (Genentech, Inc., priority 2011, dated 2013).
# Like-named read-outs stand apart in the source and are kept apart here.
# Assays:
# [1] = test system: MM1.S (multiple myeloma) cells; assay: In vitro cell proliferation, MM1.S multiple myeloma cells (CellTiter-Glo, ATP); type: cell-based; details: read-out: Prolif MM1S ATP (EC50)
# Outline: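 BaF3 parental cells (medium with 2 ng/mL mIL-3) seeded at 2 k/well and MM1.S at 10 k/well, then exposed to test compound at 37° C, 5% CO2: BaF3 overnight, MM1.S for 72 hours. Viability read by CellTiter-Glo; IC50/EC50 values calculated.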
# PIM1 = PIM1 (Homo sapiens (Human), UniProt P11309); assay: Pim kinase inhibition, PIM1 LC3K (Example 901); type: biochemical
# PIM1, sequence (P11309 whole entry): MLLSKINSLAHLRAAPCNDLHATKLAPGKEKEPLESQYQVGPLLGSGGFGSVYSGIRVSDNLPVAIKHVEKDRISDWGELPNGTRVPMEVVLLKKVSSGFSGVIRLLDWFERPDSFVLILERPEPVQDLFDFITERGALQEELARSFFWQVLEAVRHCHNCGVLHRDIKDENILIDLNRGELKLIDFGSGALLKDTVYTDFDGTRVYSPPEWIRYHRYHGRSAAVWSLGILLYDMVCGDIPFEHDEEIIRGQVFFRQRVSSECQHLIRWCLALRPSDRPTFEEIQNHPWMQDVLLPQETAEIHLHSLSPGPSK
# Source text: Determination of the Pim kinase activity of a Formula I compound is possible by a number of direct and indirect detection methods.
# BaF3 parental cells = assay: In vitro cell proliferation, BaF3 parental line + IL3 (CellTiter-Glo); type: cell-based, murine; details: Mus musculus, BaF3, BaF3 parental cells with IL-3, incubated overnight
# Procedure: (§1) BaF3 parental line was obtained from the DSMZ repository. BaF3 lines transfected with PIM 1 or PIM2 were generated. Mouse IL-3 was purchased from R&D Systems. G418 was purchased from Clontech. Media for BaF3 parental line contained RPMI, 10% FBS, 2 mM L-Glutamine, 2 ng/mL mIL-3. Media for BaF3 PIM1 & 2 lines contained RPMI, 10% FBS, 2 mM L-Glutamine, 250 μg/mL.
# (§2) BaF3, a murine interleukin-3 dependent pro-B cell line, parental cells, BaF3 PIM1 cells, BaF3 PIM2 cells, and MM1.S (multiple myeloma) cells were seeded at 2 k/well, 5 k/well, 5 k/well, and 10 k/well respectively, in a 384-well plate, at 45 μL/well. Test compound was added at 5 μL/well. BaF3 cells (parental and transfected) were incubated overnight, while MM1.S cells were incubated for 72 hours at 37° C., 5% CO2. CELL TITER GLO® Reagent (Promega) was added at 50 μL/well, the plates were incubated for 30 minutes, and their luminescence read on an HT Analyst. IC50/EC50 values for the test compound were calculated.
# BaF3 PIM1 cells [2] = assay: cells; details: Mus musculus
# Procedure: as §1, §2
# BaF3 PIM1 cells [3] = details: read-out: Prolif BaF3_PIM1 (IC50), incubated overnight
# Procedure: as §1, §2
# [4] = read-out: Prolif BaF3 + IL3 (IC50)
# [5] = BaF3, read-out: Prolif BaF3_PIM1 (IC50), BaF3 PIM1 cells, incubated overnight
# [6] = read-out: Prolif BaF3 IL3 (IC50)
# [7] = BaF3, read-out: Prolif BaF3 PIM1 (IC50), BaF3 PIM1 cells, incubated overnight
smiles,measurement,setting,value
"Cn1ncc(NC(=O)c2nc(-c3ccncc3F)sc2N)c1N1CC[C@H](N)[C@@H](F)CC1 [Example 422, 5-amino-N-(5-((4S,5S)-4-amino-5-fluoroazepan-1-yl)-1-methyl-1H-pyrazol-4-yl)-2-(3-fluoropyridin-4-yl)thiazole-4-carboxamide]",EC50,"[1]; Homo sapiens, MM1.S, 72 h",3800 nM
same,Ki,PIM1,0.38 nM
same,IC50,BaF3 parental cells; [4],> 25000 nM
same,IC50,BaF3 PIM1 cells [2]; [5],340 nM
"CN[C@@H]1CCCN(c2c(NC(=O)c3nc(-c4cc(F)ccc4F)sc3N)cnn2CC(F)F)CC1 [Example 108, (R)-5-Amino-N-(1-(2,2-difluoroethyl)-5-(4-(methylamino)azepan-1-yl)-1H-pyrazol-4-yl)-2-(2,5-difluorophenyl)thiazole-4-carboxamide]",EC50,"[1]; Homo sapiens, MM1.S, 72 h",1400 nM
same,Ki,PIM1,0.43 nM
same,IC50,BaF3 parental cells; [6],4900 nM
same,IC50,BaF3 PIM1 cells [2]; [7],326 nM
"Cc1c(-c2nc(C(=O)Nc3cnn(C)c3N3CC[C@@H](N)CC(F)(F)C3)c(N)s2)cnn1C [Example 463, 5-amino-N-[5-[(5R)-5-amino-3,3-difluoro-azepan-1-yl]-1-methyl-pyrazol-4-yl]-2-(1,5-dimethylpyrazol-4-yl)thiazole-4-carboxamide]",EC50,"[1]; Homo sapiens, MM1.S, 72 h",108 nM
same,Ki,PIM1,0.018 nM
same,IC50,BaF3 parental cells; [4],> 25000 nM
same,IC50,BaF3 PIM1 cells [2]; [5],58.4 nM
"Cn1ncc(NC(=O)c2nc(-c3c(F)cncc3F)sc2N)c1N1CC[C@H](N)CC(F)(F)C1 (single isomer, unassigned) [Example 454]",EC50,"[1]; Homo sapiens, MM1.S, 72 h",3700 nM
same,Ki,PIM1,0.023 nM
same,IC50,BaF3 parental cells; [4],17900 nM
same,IC50,BaF3 PIM1 cells [2]; [5],2.17 nM
"CCn1ncc(NC(=O)c2nc(-c3c(F)cccc3F)sc2N)c1N1CCC(N)C(OC)CC1 (single isomer, unassigned) [Example 406, 5-amino-N-[5-(4-amino-5-methoxy-azepan-1-yl)-1-ethyl-pyrazol-4-yl]-2-(2,6-difluorophenyl)thiazole-4-carboxamide]",IC50,BaF3 PIM1 cells [3],284 nM
same,EC50,[1]; 72 hours,404 nM
same,Ki,PIM1,0.133 nM
same,IC50,BaF3 parental cells; [4],12000 nM
"Cn1ncc(NC(=O)c2nc(-c3cc(F)ccc3F)sc2N)c1N1CCNCC(F)(F)C1 [Example 106, 5-Amino-N-(5-(6,6-difluoro-1,4-diazepan-1-yl)-1-methyl-1H-pyrazol-4-yl)-2-(2,5-difluorophenyl)thiazole-4-carboxamide]",EC50,"[1]; Homo sapiens, MM1.S, 72 h",1900 nM
same,Ki,PIM1,0.03 nM
same,IC50,BaF3 parental cells; [6],15600 nM
same,IC50,BaF3 PIM1 cells [2]; [7],566 nM
"Cn1ncc(NC(=O)c2nc(-c3ccncc3F)sc2N)c1N1CC[C@H](N)CC(F)(F)C1 (single isomer, unassigned) [Example 446]",EC50,"[1]; Homo sapiens, MM1.S, 72 h",9200 nM
same,Ki,PIM1,0.01 nM
same,IC50,BaF3 parental cells; [4],23500 nM
same,IC50,BaF3 PIM1 cells [2]; [5],4.51 nM
"Cn1ncc(NC(=O)c2nc(-c3ccccc3F)sc2N)c1N1CCCC(C)(N)CC1 (racemic) [Example 412, 5-amino-N-[5-(4-amino-4-methyl-azepan-1-yl)-1-methyl-pyrazol-4-yl]-2-(2-fluorophenyl)thiazole-4-carboxamide]",EC50,"[1]; Homo sapiens, MM1.S, 72 h",1100 nM
same,Ki,PIM1,0.057 nM
same,IC50,BaF3 parental cells; [4],7100 nM
same,IC50,BaF3 PIM1 cells [2]; [5],1500 nM
"COC1CCN(c2c(NC(=O)c3nc(-c4ccccn4)sc3N)cnn2C)CCC1N (racemic) [Example 322, 5-amino-N-[5-(4-amino-5-methoxy-azepan-1-yl)-1-methyl-pyrazol-4-yl]-2-(2-pyridyl)thiazole-4-carboxamide]",EC50,"[1]; Homo sapiens, MM1.S, 72 h",123 nM
same,Ki,PIM1,0.833 nM
same,IC50,BaF3 parental cells; [4],> 25000 nM
same,IC50,BaF3 PIM1 cells [2]; [5],1400 nM
"COC1CCN(c2c(NC(=O)c3nc(-c4cc(F)ccc4F)sc3N)cnn2C)CCC1N (stereo not drawn) [Example 326, 5-amino-N-[5-(4-amino-5-methoxy-azepan-1-yl)-1-methyl-pyrazol-4-yl]-2-(2,5-difluorophenyl)thiazole-4-carboxamide]",EC50,"[1]; Homo sapiens, MM1.S, 72 h",185 nM
same,Ki,PIM1,0.384 nM
same,IC50,BaF3 parental cells; [4],17400 nM
same,IC50,BaF3 PIM1 cells [2]; [5],73.5 nM
"Cn1ncc(NC(=O)c2nc(-c3c(F)cncc3F)sc2N)c1N1CC[C@H](N)[C@@H](F)CC1 (racemic) [Example 439, 5-amino-N-(5-((4S,5S)-4-amino-5-fluoroazepan-1-yl)-1-methyl-1H-pyrazol-4-yl)-2-(3,5-difluoropyridin-4-yl)thiazole-4-carboxamide]",EC50,"[1]; Homo sapiens, MM1.S, 72 h",3900 nM
same,Ki,PIM1,0.121 nM
same,IC50,BaF3 parental cells; [4],16200 nM
same,IC50,BaF3 PIM1 cells [2]; [5],38.8 nM
"CN[C@@H]1CCCN(c2c(NC(=O)c3nc(-c4c(F)cccc4F)sc3N)cnn2CC(F)F)CC1 [Example 107, (R)-5-Amino-N-(1-(2,2-difluoroethyl)-5-(4-(methylamino)azepan-1-yl)-1H-pyrazol-4-yl)-2-(2,6-difluorophenyl)thiazole-4-carboxamide]",EC50,"[1]; Homo sapiens, MM1.S, 72 h",388 nM
same,Ki,PIM1,0.079 nM
same,IC50,BaF3 parental cells; [6],5100 nM
same,IC50,BaF3 PIM1 cells [2]; [7],157 nM
"COC1CCN(c2c(NC(=O)c3nc(-c4ccccc4F)sc3N)cnn2C)CCC1N (stereo not drawn) [Example 324, 5-amino-N-[5-(4-amino-5-methoxy-azepan-1-yl)-1-methyl-pyrazol-4-yl]-2-(2-fluorophenyl)thiazole-4-carboxamide]",EC50,"[1]; Homo sapiens, MM1.S, 72 h",32 nM
same,Ki,PIM1,0.0694 nM
same,IC50,BaF3 parental cells; [4],19600 nM
same,IC50,BaF3 PIM1 cells [2]; [5],33.6 nM
"[2H]C([2H])([2H])OC1CCN(c2c(NC(=O)c3nc(-c4ccccc4F)sc3N)cnn2C)CCC1N (stereo not drawn) [Example 491, 5-amino-N-[5-[4-amino-5-(trideuteriomethoxy)azepan-1-yl]-1-methyl-pyrazol-4-yl]-2-(2-fluorophenyl)thiazole-4-carboxamide]",EC50,"[1]; Homo sapiens, MM1.S, 72 h",67.9 nM
same,Ki,PIM1,0.055 nM
same,IC50,BaF3 parental cells; [4],> 25000 nM
same,IC50,BaF3 PIM1 cells [2]; [5],44.9 nM
"Cc1c(-c2nc(C(=O)Nc3cnn(C)c3N3CCC(N)CC(F)(F)C3)c(N)s2)cnn1C (stereo not drawn) [Example 460, 5-amino-N-[5-(5-amino-3,3-difluoro-azepan-1-yl)-1-methyl-pyrazol-4-yl]-2-(1,5-dimethylpyrazol-4-yl)thiazole-4-carboxamide]",EC50,"[1]; Homo sapiens, MM1.S, 72 h",215 nM
same,Ki,PIM1,0.026 nM
same,IC50,BaF3 parental cells; [4],> 25000 nM
same,IC50,BaF3 PIM1 cells [2]; [5],36.4 nM
"Cn1ncc(NC(=O)c2nc(-c3c(F)cncc3F)sc2N)c1N1CC[C@@H](N)CC(F)(F)C1 [Example 455, 5-amino-N-[5-[(5R)-5-amino-3,3-difluoro-azepan-1-yl]-1-methyl-pyrazol-4-yl]-2-(3,5-difluoro-4-pyridyl)thiazole-4-carboxamide]",EC50,"[1]; Homo sapiens, MM1.S, 72 h",221 nM
same,Ki,PIM1,0.009 nM
same,IC50,BaF3 parental cells; [4],3900 nM
same,IC50,BaF3 PIM1 cells [2]; [5],2.57 nM
"COC1(C)CC(N)CCN(c2c(NC(=O)c3nc(-c4ccncc4F)sc3N)cnn2C)C1 (racemic) [Example 441, 5-amino-N-[5-(5-amino-3-methoxy-3-methyl-azepan-1-yl)-1-methyl-pyrazol-4-yl]-2-(3-fluoro-4-pyridyl)thiazole-4-carboxamide]",EC50,"[1]; Homo sapiens, MM1.S, 72 h",39.3 nM
same,Ki,PIM1,0.027 nM
same,IC50,BaF3 parental cells; [4],> 25000 nM
same,IC50,BaF3 PIM1 cells [2]; [5],13.1 nM
"CN[C@H]1CCCN(c2c(NC(=O)c3nc(-c4cc(C)ccc4F)sc3N)cnn2CC(F)F)CC1 [Example 119, (S)-5-Amino-N-(1-(2,2-difluoroethyl)-5-(4-(methylamino)azepan-1-yl)-1H-pyrazol-4-yl)-2-(2-fluoro-5-methylphenyl)thiazole-4-carboxamide]",EC50,"[1]; Homo sapiens, MM1.S, 72 h",3000 nM
same,Ki,PIM1,0.044 nM
same,IC50,BaF3 parental cells; [6],5600 nM
same,IC50,BaF3 PIM1 cells [2]; [7],212 nM
"Cn1ncc(NC(=O)c2nc(-c3ccncc3F)sc2N)c1N1CC[C@@H](N)CC(F)(F)C1 [Example 447, 5-amino-N-[5-[(5R)-5-amino-3,3-difluoro-azepan-1-yl]-1-methyl-pyrazol-4-yl]-2-(3-fluoro-4-pyridyl)thiazole-4-carboxamide]",EC50,"[1]; Homo sapiens, MM1.S, 72 h",571 nM
same,Ki,PIM1,0.014 nM
same,IC50,BaF3 parental cells; [4],12900 nM
same,IC50,BaF3 PIM1 cells [2]; [5],6.97 nM
"Cc1ccc(F)c(-c2nc(C(=O)Nc3cnn(C4CC4)c3N3CCC(N)C(F)CC3)c(N)s2)c1 (stereo not drawn) [Example 329, 5-amino-N-[5-(4-amino-5-fluoro-azepan-1-yl)-1-cyclopropyl-pyrazol-4-yl]-2-(2-fluoro-5-methyl-phenyl)thiazole-4-carboxamide]",EC50,"[1]; Homo sapiens, MM1.S, 72 h",2800 nM
same,Ki,PIM1,0.248 nM
same,IC50,BaF3 parental cells; [4],4600 nM
same,IC50,BaF3 PIM1 cells [2]; [5],1300 nM
"COC1(C)CC(N)CCN(c2c(NC(=O)c3nc(-c4c(F)cncc4F)sc3N)cnn2C)C1 (stereo not drawn) [Example 473, 5-amino-N-[5-(5-amino-3-methoxy-3-methyl-azepan-1-yl)-1-methyl-pyrazol-4-yl]-2-(3,5-difluoro-4-pyridyl)thiazole-4-carboxamide]",EC50,"[1]; Homo sapiens, MM1.S, 72 h",248 nM
same,Ki,PIM1,0.009 nM
same,IC50,BaF3 parental cells; [4],25000 nM
same,IC50,BaF3 PIM1 cells [2]; [5],41.1 nM
"Cn1ncc(NC(=O)c2nc(-c3c(F)cncc3F)sc2N)c1N1CCC(N)CC(F)(F)C1 (racemic) [Example 438, 5-amino-N-[5-(5-amino-3,3-difluoro-azepan-1-yl)-1-methyl-pyrazol-4-yl]-2-(3,5-difluoro-4-pyridyl)thiazole-4-carboxamide]",EC50,"[1]; Homo sapiens, MM1.S, 72 h",80.6 nM
same,Ki,PIM1,0.008 nM
same,IC50,BaF3 parental cells; [4],20300 nM
same,IC50,BaF3 PIM1 cells [2]; [5],3.03 nM
"COC1(C)CC(N)CCN(c2c(NC(=O)c3nc(-c4ccncc4F)sc3N)cnn2C)C1 (stereo not drawn) [Example 476, 5-amino-N-[5-(5-amino-3-methoxy-3-methyl-azepan-1-yl)-1-methyl-pyrazol-4-yl]-2-(3-fluoro-4-pyridyl)thiazole-4-carboxamide]",EC50,"[1]; Homo sapiens, MM1.S, 72 h",872 nM
same,Ki,PIM1,0.013 nM
same,IC50,BaF3 parental cells; [4],25000 nM
same,IC50,BaF3 PIM1 cells [2]; [5],24.5 nM
"COC1(C)CC(N)CCN(c2c(NC(=O)c3nc(-c4c(F)cncc4F)sc3N)cnn2C)C1 (racemic) [Example 440, 5-amino-N-[5-(5-amino-3-methoxy-3-methyl-azepan-1-yl)-1-methyl-pyrazol-4-yl]-2-(3,5-difluoro-4-pyridyl)thiazole-4-carboxamide]",EC50,"[1]; Homo sapiens, MM1.S, 72 h",77.4 nM
same,Ki,PIM1,0.024 nM
same,IC50,BaF3 parental cells; [4],> 25000 nM
same,IC50,BaF3 PIM1 cells [2]; [5],15.2 nM
